Experimental findings from patent publication US11612601B1, “Targeting epidermal growth factor to treat vascular calcification” (THE FLORIDA INTERNATIONAL UNIVERSITY BOARD OF TRUSTEES, priority 2022, dated 2023) are described below.

The subject of one data set is CKD mice. Kind of data set: Chronic kidney disease and vascular calcification mouse model (OsteoSense calcium tracer in aorta). Type of data set: in vivo. The conditions noted are these: for vascular calcification (calcium tracer OsteoSense visualization, aorta): daily oral gavage 10 mg/kg for two weeks, vs CKD vehicle, 10 mg/kg. The text has this: The in vivo study was approved by the Institutional Animal Care and Use Committee (IACUC) at Florida International University under protocol AN20-006 and conformed to current NIH guidelines. 8-week-old wild type C57BL/6J mice (n=38, 19 per biological sex) were fed an adenine-supplemented diet (0.2%, TestDiet, Richmond, Ind.) for 6 weeks to induce severe kidney injury. The mice then received a diet containing 1.8% phosphate (TestDiet, Richmond, Ind.) and 0.2% adenine for an additional two weeks to induce medial calcinosis.
Along with this calcifying diet, a group of mice (n=19) received daily tyrphostin AG1478 (10 mg/kg mouse, Millipore Sigma, T4182) via oral gavage. The remaining mice (n=19) received vehicle treatment (1% w/v, carboxymethylcellulose sodium salt, Sigma, C5678). For non-diseased controls, a third group of mice (n=12, 6 per biological sex) were fed a regular chow diet and received the vehicle for the final two weeks. During the oral gavage, animals were partially anesthetized using isoflurane (1%, Patterson Veterinary, 07-893-1389, in 2 L.min^−1 oxygen flow). All animals received a tail vein injection with the calcium tracer OsteoSense 680EX (80 nmol/kg mouse, PerkinElmer, NEV10020EX) 48 hours prior to euthanization. At study endpoint, mice were anesthetized with isoflurane (1%, in 2 L.min^−1 oxygen flow) followed by retro-orbital bleeding for blood collection. Mice were then immediately euthanized by laceration of the diaphragm before tissue collection. After resection, the aortas were imaged using a near-infrared scanner (LI-COR Odyssey) to visualize the vascular calcification burden. A custom MATLAB script quantified the total area of the calcium tracer, which was normalized to the total scanned aorta area.

Data set [1] concerns Primary human coronary artery vascular smooth muscle cells. Kind of data set: VSMC intracellular and cytosolic CAV1, EGFR, TNAP (immunoblot, activity assay, confocal). Type of data set: cell-based. The conditions noted are these: OS + 2.5 μM, 14 days.
Experimental: To assess the activity of intracellular tissue non-specific alkaline phosphatase (TNAP), a colorimetric assay kit (BioVision, K412) was used. VSMCs (n=3) after 14 days and osteoblasts (n=3) after 7 days, were lysed in 120 μL assay buffer. 80 μL of each sample were mixed with 50 μL of 5 mM pNPP solution and incubated for 60 min at 25° C. The colorimetric change resulting from the reaction was detected using a plate reader to measure absorbance at 405 nm. The results were normalized to the total protein for associated samples measured by a BCA protein assay (BioVision, K813).
VSMCs were treated with control, OS, and OS supplemented with tyrphostin AG1478 (2.5 μM) for 14 days. At the experiment endpoint, using a subcellular protein fraction kit for cultured cells (Thermofisher, 78840), cytosolic fraction was isolated according to the manufacturer's protocol. Briefly, VSMCs were harvested using 0.25% trypsin solution and resuspended in cytoplasmic extraction buffer. After 10 min incubation at 4° C., the samples were centrifuged at 1000×g for 5 min and the supernatants were collected as cytosolic fractions. The protein concentration for aortic tissue and VSMC fractions were quantified using a BCA assay and samples were prepared for protein immunoblotting.
After adding Laemmli SDS-sample buffer (1:4 v/v, Boston BioProducts, BP-110R) to each lysate, the samples were denatured at 100° C. for 10 min, loaded into 7.5-12% 1-mm SDS-PAGE gel (15 to 20 μg protein per lane), and run at 170 V. The proteins were then transferred to Trans-Blot turbo nitrocellulose membranes (BIO-RAD, 1704158) at 25 V for 7 min.
To quantify the total protein, the membranes were stained using 2% w/v Ponceau stain (Alfa Aesar, AAJ6074409) for 20 min, followed by one wash with 5% acetic acid and milliQ water for 5 min. After imaging, the intensity of each lane was measured in ImageJ for total protein normalization. Membranes were blocked with 5% w/v bovine serum albumin (HyClone, SH30574.01) in TBS-Tween (1×) for 1 hour. The membranes were incubated with primary antibodies of interest, including CAV1 (1:200, Abcam, ab2910), TNAP (1:200, Invitrogen, 702454), EGFR (1:00, EMD Millipore, 06-874), CD63 (1:200, Abeam, ab231975), GAPDH (1:100, Abcam, ab181602), and Annexin V (1:200, proteintech, 11060-1-AP) overnight at 4° C. After three washes with TBS-Tween (1×), the membranes were incubated with secondary antibody (1:1000, Li-Cor) for 1 hour, followed by three washes with TBS-Tween (1×). The protein bands were visualized with Odyssey CLx scanner (Li-Cor), and quantified using Image Studio Lite software (Li-Cor).
VSMCs were fixed after 14 days of culture using formalin (10%) for 15 min and washed with PBS. A solution of PBS and Triton X (0.1% v/v) permeabilized the plasma membrane for 10 min at room temperature. To avoid non-specific antibody binding, the cells were incubated with a blocking buffer solution, consisting of BSA (1% w/v) and glycine (22.5 mg/mL) in PBS for 30 min at room temperature. Next, the cells were incubated for 2 hours with primary antibody against CAV1 (1:200), and washed three times with PBS. Cells were then incubated with a secondary antibody, Alexa Fluor 594 (1:500, Abeam, ab150080) for 1 hour at room temperature, following by three washes with PBS. The nuclei were stained using DAPI (0.2 mg/mL, Cayman Chemical, 14285). […]

For the molecule `COc1cc2ncnc(Nc3cccc(Cl)c3)c2cc1OC` [AG1478, tyrphostin AG1478], in the data set on CKD mice (CKD mice, 10 mg/kg daily, two weeks, vs CKD, p≤0.001), the “Quantification of the OsteoSense intensity (vascular calcification)” value is on record as “significant reduction”. In addition, the “vascular calcification (calcium tracer OsteoSense visualization, aorta)” value with CKD mice (CKD mice) was “reduced calcium burden”; with CKD mice (CKD mice, listed as EGFR inhibitor), “dramatically reduced”. Further, the survival rate in the data set on CKD mice (CKD mouse model) was determined as 100%. In data set [1] (compared to control), the “intracellular TNAP activity in VSMCs” value is “elevated”. Further, the “cytosolic TNAP in VSMCs” value in data set [1] (compared to control (p=0.003) and OS (p=0.005)) is recorded as “elevated”. Also, in data set [1] (compared to control (p=0.02) and OS (p=0.04)), the “cytosolic CAV1 in VSMCs” value was “elevated”. Besides, in data set [1] (compared to control group), the “total level of intracellular CAV1 in VSMCs” value is recorded as “significantly increased”. Further, the “intracellular EGFR protein in VSMCs” value in data set [1] (p=0.84) is “prevented the OS-induced increase”.
